Source: patent US20110071150A1 (priority 2009, published 2011)

system: Jurkat IL-2 Production; assay: Jurkat IL-2 Production Assay; assay type: cell-based; conditions: Homo sapiens, Jurkat cell (ATCC), 18-20 h incubation, PHA 5 μg/mL with 1% FBS, or PMA/Ionomycin with 30% FBS (table does not say which)
Summary of the method: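 Jurkat cells were exposed to compound (0.25% DMSO final) for 10 min, then stimulated for 18–20 h at 37 °C. The 1% FBS condition used 5 μg/mL PHA; the high-serum condition (30% FBS) used 50 ng/mL PMA plus 500 ng/mL ionomycin. IC50 was derived from IL-2 production.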

SMILES	IC50 [nM]
COc1cc(F)c(-c2cc3cc(-c4nc(-c5cccnc5)sc4C)ccc3[nH]2)c(F)c1 [Example 66, 2-(2,6-Difluoro-4-methoxy-phenyl)-5-(5-methyl-2-pyridin-3-yl-thiazol-4-yl)-1H-indole]	33
Cc1cc(N2CCNCC2)ncc1-c1ccc2[nH]c(-c3c(F)cccc3F)cc2c1 [Example 104, 2-(2,6-Difluoro-phenyl)-5-(4-methyl-6-piperazin-1-yl-pyridin-3-yl)-1H-indole]	178
Cc1ccccc1-c1cc2cc(-c3cc(-c4cccnc4)nn3C)ccc2[nH]1 [Example 79, 5-(2-Methyl-5-pyridin-3-yl-2H-pyrazol-3-yl)-2-o-tolyl-1H-indole]	139
Cc1sc(-c2cccnc2)nc1-c1ccc2[nH]c(-c3ccccc3F)cc2c1 [Example 11, 2-(2-Fluoro-phenyl)-5-(5-methyl-2-pyridin-3-yl-thiazol-4-yl)-1H-indole]	169
Cn1nc(-c2ncco2)cc1-c1ccc2[nH]c(-c3c(F)cccc3F)cc2c1 [Example 110, 2-(2,6-Difluoro-phenyl)-5-(2-methyl-5-oxazol-2-yl-2H-pyrazol-3-yl)-1H-indole]	190
CS(=O)(=O)c1ccc(-c2ccc3[nH]c(-c4c(F)cccc4F)cc3c2)c(C(F)(F)F)c1 [Example 96, 2-(2,6-Difluoro-phenyl)-5-(4-methanesulfonyl-2-trifluoromethyl-phenyl)-1H-indole]	177
Cc1sc(I)nc1-c1ccc2[nH]c(-c3c(F)cccc3F)cc2c1 [Example 106, 2-(2,6-Difluoro-phenyl)-5-(2-iodo-5-methyl-thiazol-4-yl)-1H-indole]	488
Cc1sc(C(C)C)nc1-c1ccc2[nH]c(-c3c(F)cccc3F)cc2c1 [Example 70, 2-(2,6-Difluoro-phenyl)-5-(2-isopropyl-5-methyl-thiazol-4-yl)-1H-indole]	356
COc1ccc(OC)c(-c2ccc3[nH]c(-c4c(F)cccc4F)cc3c2)c1 [Example 26, 2-(2,6-Difluoro-phenyl)-5-(2,5-dimethoxy-phenyl)-1H-indole]	639
Cc1cc(-c2ncco2)ccc1-c1ccc2[nH]c(-c3c(F)cccc3F)cc2c1 [Example 102, 2-(2,6-Difluoro-phenyl)-5-(2-methyl-4-oxazol-2-yl-phenyl)-1H-indole]	74
Cn1nc(C(F)(F)F)cc1-c1ccc2[nH]c(-c3c(F)cccc3F)cc2c1 [Example 1, 2-(2,6-Difluoro-phenyl)-5-(2-methyl-5-trifluoromethyl-2H-pyrazol-3-yl)-1H-indole]	46
Cn1nc(-c2cccnc2)cc1-c1ccc2[nH]c(-c3cccc(Cl)c3Cl)cc2c1 [Example 85, 2-(2,3-Dichloro-phenyl)-5-(2-methyl-5-pyridin-3-yl-2H-pyrazol-3-yl)-1H-indole]	149
Cc1cc(Cl)ccc1-c1ccc2[nH]c(-c3c(F)cccc3F)cc2c1 [Example 31, 5-(4-Chloro-2-methyl-phenyl)-2-(2,6-difluoro-phenyl)-1H-indole]	174
Cc1sc(-c2ccncc2)nc1-c1ccc2[nH]c(-c3ccccc3Cl)cc2c1 [Example 22, 2-(2-Chloro-phenyl)-5-(5-methyl-2-pyridin-4-yl-thiazol-4-yl)-1H-indole]	150
Cn1nc(C(F)(F)F)cc1-c1ccc2[nH]c(-c3ccc(OC(F)(F)F)cc3)cc2c1 [Example 3, 5-(2-Methyl-5-trifluoromethyl-2H-pyrazol-3-yl)-2-(4-trifluoromethoxy-phenyl)-1H-indole]	954
COc1ccc(-c2ccc3[nH]c(-c4c(F)cccc4F)cc3c2)c(C(F)(F)F)c1 [Example 99, 2-(2,6-Difluoro-phenyl)-5-(4-methoxy-2-trifluoromethyl-phenyl)-1H-indole]	344
Cn1nc(C2CC2)cc1-c1ccc2[nH]c(-c3ccccc3Cl)cc2c1 [Example 61, 2-(2-Chloro-phenyl)-5-(5-cyclopropyl-2-methyl-2H-pyrazol-3-yl)-1H-indole]	848
Cc1ccc(-c2ccc3[nH]c(-c4c(F)cccc4F)cc3c2)c(C)c1 [Example 29, 2-(2,6-Difluoro-phenyl)-5-(2,4-dimethyl-phenyl)-1H-indole]	168
CN(C)S(=O)(=O)c1ccc(-c2ccc3[nH]c(-c4c(F)cccc4F)cc3c2)c(C(F)(F)F)c1 [Example 97, 4-[2-(2,6-Difluoro-phenyl)-1H-indol-5-yl]-N,N-dimethyl-3-trifluoromethyl-benzenesulfonamide]	72
Cn1nc(C(F)(F)F)cc1-c1ccc2[nH]c(-c3ccccc3F)cc2c1 [Example 14, 2-(2-Fluoro-phenyl)-5-(2-methyl-5-trifluoromethyl-2H-pyrazol-3-yl)-1H-indole]	337
Fc1cccc(Cl)c1-c1cc2cc(-c3ccc(C(F)(F)F)cc3Cl)ccc2[nH]1 [Example 56, 2-(2-Chloro-6-fluoro-phenyl)-5-(2-chloro-4-trifluoromethyl-phenyl)-1H-indole]	132

Now from value to compound:

IC50 [nM]	SMILES
89	Cc1cc(C#N)ccc1-c1ccc2[nH]c(-c3ccncc3C)cc2c1 [Example 145, methyl-4-(2-(3-methylpyridin-4-yl)-1H-indol-5-yl)benzonitrile]
99	Cc1cc(C#N)cnc1-c1ccc2[nH]c(-c3c(F)cccc3Cl)cc2c1 [Example 161, 6-(2-(2-chloro-6-fluorophenyl)-1H-indol-5-yl)-5-methylnicotinonitrile]
100	Cc1sc(-c2ccccn2)nc1-c1ccc2[nH]c(-c3c(Cl)cccc3Cl)cc2c1 [Example 217, 2-(2,6-Dichloro-phenyl)-5-(5-methyl-2-pyridin-2-yl-thiazol-4-yl)-1H-indole]
132	Cc1cc(C#N)ccc1-c1ccc2[nH]c(-c3ccc(C#N)cc3C)cc2c1 [Example 137, 4-(2-(4-Cyano-2-methylphenyl)-1H-indol-5-yl)-3-methylbenzonitrile]
110	CCn1nc(C(F)(F)F)cc1-c1ccc2c(c1)CC(C1CCCCC1)N2 (stereo not shown) [Example 197]
319	COc1ccc(-c2cc3cc(-c4ccc(C#N)cc4C)ccc3[nH]2)c(Cl)c1 [Example 132, 4-[2-(2-Chloro-4-methoxy-phenyl)-1H-indol-5-yl]-3-methyl-benzonitrile]
60	COc1cc(C)c(-c2ccc3[nH]c(-c4c(F)cccc4F)cc3c2)cn1 [Example 113, 2-(2,6-Difluoro-phenyl)-5-(6-methoxy-4-methyl-pyridin-3-yl)-1H-indole]
87	Cc1cc(C#N)ccc1-c1ccc2[nH]c(-c3c(F)cc(OCCCC#N)cc3F)cc2c1 [Example 155, 4-(2-(4-(3-cyanopropoxy)-2,6-difluorophenyl)-1H-indol-5-yl)-3-methylbenzonitrile]
51	Cc1sc(-c2cnccn2)nc1-c1ccc2[nH]c(-c3c(F)cccc3F)cc2c1 [Example 206, 2-(2,6-Difluoro-phenyl)-5-(5-methyl-2-pyrazin-2-yl-thiazol-4-yl)-1H-indole]
15	COc1cc(C#N)ccc1-c1ccc2[nH]c(-c3c(F)cccc3Cl)cc2c1 [Example 172, 4-[2-(2-Chloro-6-fluoro-phenyl)-1H-indol-5-yl]-3-methoxy-benzonitrile]
547	Cc1nc(C)c(-c2cc3cc(-c4ccc(C#N)cc4C)ccc3[nH]2)s1 [Example 148, 4-(2-(2,4-dimethylthiazol-5-yl)-1H-indol-5-yl)-3-methylbenzonitrile]
130	Cc1cc(C#N)ccc1-c1ccc2[nH]c(-c3c(F)cc(OCCCO)cc3F)cc2c1 [Example 156, 4-(2-(2,6-difluoro-4-(3-hydroxypropoxy)phenyl)-1H-indol-5-yl)-3-methylbenzonitrile]
16	Cc1cc(S(=O)(=O)N(C)C)ccc1-c1ccc2[nH]c(-c3ccccc3Cl)cc2c1 [Example 130, 4-[2-(2-Chloro-phenyl)-1H-indol-5-yl]-3,N,N-trimethyl-benzenesulfonamide]
97	Cc1cc(-c2ncco2)ncc1-c1ccc2[nH]c(-c3c(F)cccc3F)cc2c1 [Example 208, 2-(2,6-Difluoro-phenyl)-5-(4-methyl-6-oxazol-2-yl-pyridin-3-yl)-1H-indole]
11	CCn1nc(-c2cccnc2)nc1-c1ccc2[nH]c(-c3c(F)cccc3Cl)cc2c1 [Example 124, 2-(2-Chloro-6-fluoro-phenyl)-5-(2-ethyl-5-pyridin-3-yl-2H-[1,2,4]triazol-3-yl)-1H-indole]
149	CCn1nc(C(F)(F)F)cc1-c1ccc2[nH]c(-c3ccncc3F)cc2c1 [Example 192, 5-(1-ethyl-3-(trifluoromethyl)-1H-pyrazol-5-yl)-2-(3-fluoropyridin-4-yl)-1H-indole]
158	Cc1cccc(C)c1-c1cc2cc(-c3nc(-c4ccccn4)sc3C)ccc2[nH]1 [Example 219, 2-(2,6-Dimethyl-phenyl)-5-(5-methyl-2-pyridin-2-yl-thiazol-4-yl)-1H-indole]
286	Cc1cc(C#N)ccc1-c1ccc2[nH]c(-c3cscc3C)cc2c1 [Example 149, methyl-4-(2-(4-methylthiophen-3-yl)-1H-indol-5-yl)benzonitrile]
59	Cc1ccc(-c2nc(-c3ccc4[nH]c(-c5c(F)cccc5Cl)cc4c3)c(C)s2)cn1 [Example 178, 2-(2-Chloro-6-fluoro-phenyl)-5-[5-methyl-2-(6-methyl-pyridin-3-yl)-thiazol-4-yl]-1H-indole]
124	CCn1nc(-c2cnccn2)cc1-c1ccc2[nH]c(-c3cnccc3C)cc2c1 [Example 211, 5-(2-Ethyl-5-pyrazin-2-yl-2H-pyrazo-1-3-yl)-2-(4-methyl-pyridin-3-yl)-1H-indole]
115	Cc1cc(S(=O)(=O)N(C)C)ccc1-c1ccc2[nH]c(-c3c(F)cccc3F)c(C)c2c1 [Example 228, 4-[2-(2,6-Difluoro-phenyl)-3-methyl-1H-indol-5-yl]-3,N,N-trimethyl-benzenesulfonamide]
182	COc1cc(C)c(-c2cc3cc(-c4ccc(C#N)cc4C)ccc3[nH]2)cn1 [Example 143, 4-(2-(6-methoxy-4-methylpyridin-3-yl)-1H-indol-5-yl)-3-methylbenzonitrile]
